Common to all, as to experiment: Weeding effect in post-emergence stage (greenhouse pot test)
Common to all, as to format: in vivo
Conditions in all cases: 15 g a.i./ha, 3 weeks after application

One experiment relates to Echinochloa crusgalli. From the text:
(§1) The activity level criteria for plant damage (i.e., growth control rate) are as follows:
(§2) Level 5: growth control rate is above 85%;
(§3) Level 4: growth control rate is greater than or equal to 60% and less than 85%;
(§4) Level 3: growth control rate is greater than or equal to 40% and less than 60%;
(§5) Level 2: growth control rate is greater than or equal to 20% and less than 40%;
(§6) Level 1: growth control rate is greater than or equal to 5% and less than 20%;
(§7) Level 0: growth control rate is less than 5%.
(§8) The above growth control rates are fresh weight control rates.
(§9) Experiment on weeding effect in post-emergence stage:
(§10) Monocotyledonous and dicotyledonous weed seeds (Descurainia sophia, Capsella bursa-pastoris, Abutilon theophrasti, Galium aparine, Stellaria media, Lithospermum arvense, Rorippa indica, Alopecurus aequalis, Alopecurus japonicus, Beckmannia syzigachne, Sclerochloa dura, Conyza Canadensis, Phleum paniculatum, Veronica didyma Tenore, Eleusine indica, Bromus japonicus, Aegilops tauschii, Phalaris arundinacea, Amaranthus retroflexus, Chenopodium album, Commelina communis, Sonchus arvensis, Convolvulus arvensis, Cirsium setosum, Solanum nigrum, Acalypha australis, Digitaria sanguinalis, Echinochloa crusgalli, Setaria viridis, Setaria glauca, Leptochloa chinensis, Monochoria vaginalis, Sagittaria trifolia, Scirpus juncoides, Cyperus rotundus, Cyperus iria, Cyperus difformis, Fimbristylis, Portulaca oleracea, Xanthium sibiricum, Pharbitis nil) and major crop seeds (wheat, corn, rice, soybean, cotton, oilseed rape, millet, sorghum, potato, sesame, ricinus) were placed in plastic pots filled with soil, then covered with 0.5-2 cm of soil, allowed to grow in a good greenhouse environment. After 2 weeks of sowing, the test plants were treated in the 2-3 leaf stage. The tested compounds of the present invention were respectively dissolved in acetone, then added with Tween 80 and 1.5 liter/ha of emulsifiable concentrate of methyl oleate as synergist, diluted with a certain amount of water to obtain a solution with a certain concentration, and sprayed with a spray tower onto the plants. After the application, the plants were cultured for 3 weeks in the greenhouse, and then the experimental results of the weeding were counted. The doses of the used compounds were 500, 250, 125, 60, 15 g a.i./ha, and the averages were obtained by repeating for three times.

The next experiment concerns Alopecurus japonicus.
From the text: as §1, §2, §3, §4, §5, §6, §7, §8, §9, §10

For a further experiment, the system named is Abutilon theophrasti.
From the text: as §1, §2, §3, §4, §5, §6, §7, §8, §9, §10

A further experiment has as its system Setaria viridis.
From the text: as §1, §2, §3, §4, §5, §6, §7, §8, §9, §10

Another experiment relates to Amaranthus retroflexus.
From the text: as §1, §2, §3, §4, §5, §6, §7, §8, §9, §10

A further experiment has as its system Galium aparine.
From the text: as §1, §2, §3, §4, §5, §6, §7, §8, §9, §10

Another experiment has as its system Veronica didyma Tenore.
From the text: as §1, §2, §3, §4, §5, §6, §7, §8, §9, §10

The test system of the next experiment is Beckmannia syzigachne.
From the text: as §1, §2, §3, §4, §5, §6, §7, §8, §9, §10

The next experiment concerns Digitaria sanguinalis.
From the text: as §1, §2, §3, §4, §5, §6, §7, §8, §9, §10

Each structure is given as a SMILES string.

In the case of `C#CCOC(=O)c1cnc(-c2cc(-n3c(=O)cc(C(F)(F)F)n(C)c3=O)c(F)cc2Cl)s1` [1-12], the “Echinochloa crusgalli, activity level (fresh weight growth control rate)” value (“Echinochloa crusgalli, activity level” below) in the experiment with Echinochloa crusgalli is listed as 5 (Level 5: growth control rate is above 85%). Besides, in the experiment with Alopecurus japonicus, the “Alopecurus japonicus, activity level (fresh weight growth control rate)” value (shortened to “Alopecurus japonicus, activity level”) was 3 (Level 3: growth control rate is greater than or equal to 40% and less than 60%). The “Abutilon theophrasti, activity level (fresh weight growth control rate)” value (“Abutilon theophrasti, activity level” below) with Abutilon theophrasti was 5 (Level 5: growth control rate is above 85%). Also, the “Setaria viridis, activity level (fresh weight growth control rate)” value (from here on “Setaria viridis, activity level”) in the experiment on Setaria viridis is on record as 5 (Level 5: growth control rate is above 85%). Moreover, in the experiment on Amaranthus retroflexus, the “Amaranthus retroflexus, activity level (fresh weight growth control rate)” value (from here on “Amaranthus retroflexus, activity level”) is given as 5 (Level 5: growth control rate is above 85%). In the experiment on Galium aparine, the “Galium aparine, activity level (fresh weight growth control rate)” value (“Galium aparine, activity level” for short) is given as 5 (Level 5: growth control rate is above 85%). Besides, the “Veronica didyma Tenore, activity level (fresh weight growth control rate)” value (“Veronica didyma Tenore, activity level” for short) in the experiment on Veronica didyma Tenore is recorded as 5 (Level 5: growth control rate is above 85%). Moreover, in the experiment on Beckmannia syzigachne, the “Beckmannia syzigachne, activity level (fresh weight growth control rate)” value (“Beckmannia syzigachne, activity level” for short) is 3 (Level 3: growth control rate is greater than or equal to 40% and less than 60%). Further, the “Digitaria sanguinalis, activity level (fresh weight growth control rate)” value (“Digitaria sanguinalis, activity level” below) in the experiment on Digitaria sanguinalis is listed as 5 (Level 5: growth control rate is above 85%).
On to `CCOC(=O)c1cnc(-c2cc(-n3c(=O)n(C)c(=S)n(C)c3=O)c(F)cc2Cl)s1` [1-113], for which, in the experiment on Echinochloa crusgalli, the “Echinochloa crusgalli, activity level” value is 5 (Level 5: growth control rate is above 85%). In addition, in the experiment with Alopecurus japonicus, the “Alopecurus japonicus, activity level” value is 4 (Level 4: growth control rate is greater than or equal to 60% and less than 85%). The “Abutilon theophrasti, activity level” value in the experiment on Abutilon theophrasti was 5 (Level 5: growth control rate is above 85%). The “Setaria viridis, activity level” value with Setaria viridis was 5 (Level 5: growth control rate is above 85%). Moreover, in the experiment on Amaranthus retroflexus, the “Amaranthus retroflexus, activity level” value is on record as 5 (Level 5: growth control rate is above 85%). In addition, the “Galium aparine, activity level” value with Galium aparine is 5 (Level 5: growth control rate is above 85%). In the experiment with Veronica didyma Tenore, the “Veronica didyma Tenore, activity level” value was 5 (Level 5: growth control rate is above 85%). Moreover, in the experiment with Beckmannia syzigachne, the “Beckmannia syzigachne, activity level” value is 4 (Level 4: growth control rate is greater than or equal to 60% and less than 85%). In addition, the “Digitaria sanguinalis, activity level” value in the experiment with Digitaria sanguinalis was 4 (Level 4: growth control rate is greater than or equal to 60% and less than 85%).
As for `CCOC(=O)c1cnc(-c2cc(-n3c(=O)cc(C(F)(F)F)n(C)c3=O)c(F)cc2Cl)s1` [1-2], the “Echinochloa crusgalli, activity level” value in the experiment with Echinochloa crusgalli was 5 (Level 5: growth control rate is above 85%). Also, the “Alopecurus japonicus, activity level” value with Alopecurus japonicus was 4 (Level 4: growth control rate is greater than or equal to 60% and less than 85%). Moreover, the “Abutilon theophrasti, activity level” value in the experiment with Abutilon theophrasti was 5 (Level 5: growth control rate is above 85%). In addition, in the experiment on Setaria viridis, the “Setaria viridis, activity level” value is 5 (Level 5: growth control rate is above 85%). The “Amaranthus retroflexus, activity level” value with Amaranthus retroflexus is 5 (Level 5: growth control rate is above 85%). In the experiment with Galium aparine, the “Galium aparine, activity level” value is recorded as 5 (Level 5: growth control rate is above 85%). Also, in the experiment with Veronica didyma Tenore, the “Veronica didyma Tenore, activity level” value was 5 (Level 5: growth control rate is above 85%). Besides, the “Beckmannia syzigachne, activity level” value with Beckmannia syzigachne was 4 (Level 4: growth control rate is greater than or equal to 60% and less than 85%). Further, the “Digitaria sanguinalis, activity level” value with Digitaria sanguinalis is 5 (Level 5: growth control rate is above 85%).
As for `Cn1c(C(F)(F)F)cc(=O)n(-c2cc(-c3ncc(C(=O)OCC4CCCO4)s3)c(Cl)cc2F)c1=O` (stereo not drawn) [1-33], the “Echinochloa crusgalli, activity level” value in the experiment with Echinochloa crusgalli is listed as 5 (Level 5: growth control rate is above 85%). Besides, the “Alopecurus japonicus, activity level” value in the experiment with Alopecurus japonicus was 3 (Level 3: growth control rate is greater than or equal to 40% and less than 60%). Moreover, the “Abutilon theophrasti, activity level” value with Abutilon theophrasti was 5 (Level 5: growth control rate is above 85%). Also, the “Setaria viridis, activity level” value in the experiment on Setaria viridis was 5 (Level 5: growth control rate is above 85%). Also, in the experiment on Amaranthus retroflexus, the “Amaranthus retroflexus, activity level” value is 5 (Level 5: growth control rate is above 85%). Also, in the experiment with Galium aparine, the “Galium aparine, activity level” value is recorded as 5 (Level 5: growth control rate is above 85%). Also, in the experiment on Veronica didyma Tenore, the “Veronica didyma Tenore, activity level” value is given as 5 (Level 5: growth control rate is above 85%). The “Beckmannia syzigachne, activity level” value in the experiment on Beckmannia syzigachne is 3 (Level 3: growth control rate is greater than or equal to 40% and less than 60%). Further, the “Digitaria sanguinalis, activity level” value in the experiment on Digitaria sanguinalis is 5 (Level 5: growth control rate is above 85%).
As to `CCOC(=O)c1cnc(-c2nc(-n3c(=O)cc(C(F)(F)F)n(C)c3=O)c(F)cc2Cl)s1` [1-107], the “Echinochloa crusgalli, activity level” value in the experiment on Echinochloa crusgalli was 5 (Level 5: growth control rate is above 85%). Besides, the “Alopecurus japonicus, activity level” value in the experiment with Alopecurus japonicus is 5 (Level 5: growth control rate is above 85%). The “Abutilon theophrasti, activity level” value with Abutilon theophrasti is 5 (Level 5: growth control rate is above 85%). For the same compound, the “Setaria viridis, activity level” value with Setaria viridis is listed as 5 (Level 5: growth control rate is above 85%). Also, the “Amaranthus retroflexus, activity level” value with Amaranthus retroflexus is 5 (Level 5: growth control rate is above 85%). For the same compound, the “Galium aparine, activity level” value in the experiment with Galium aparine is 5 (Level 5: growth control rate is above 85%). The “Veronica didyma Tenore, activity level” value in the experiment with Veronica didyma Tenore was 5 (Level 5: growth control rate is above 85%). Besides, in the experiment with Beckmannia syzigachne, the “Beckmannia syzigachne, activity level” value is 5 (Level 5: growth control rate is above 85%). In the experiment on Digitaria sanguinalis, the “Digitaria sanguinalis, activity level” value is 5 (Level 5: growth control rate is above 85%).
In the case of `C=CCOC(=O)c1cnc(-c2cc(-n3c(=O)cc(C(F)(F)F)n(C)c3=O)c(F)cc2Cl)s1` [1-10], the “Echinochloa crusgalli, activity level” value in the experiment with Echinochloa crusgalli is recorded as 5 (Level 5: growth control rate is above 85%). For the same compound, in the experiment with Alopecurus japonicus, the “Alopecurus japonicus, activity level” value was 3 (Level 3: growth control rate is greater than or equal to 40% and less than 60%). In addition, in the experiment on Abutilon theophrasti, the “Abutilon theophrasti, activity level” value is given as 5 (Level 5: growth control rate is above 85%). Moreover, the “Setaria viridis, activity level” value with Setaria viridis is 5 (Level 5: growth control rate is above 85%). In the experiment with Amaranthus retroflexus, the “Amaranthus retroflexus, activity level” value was 5 (Level 5: growth control rate is above 85%). The “Galium aparine, activity level” value in the experiment on Galium aparine was 5 (Level 5: growth control rate is above 85%). Further, the “Veronica didyma Tenore, activity level” value in the experiment on Veronica didyma Tenore was 5 (Level 5: growth control rate is above 85%). For the same compound, in the experiment on Beckmannia syzigachne, the “Beckmannia syzigachne, activity level” value is 3 (Level 3: growth control rate is greater than or equal to 40% and less than 60%). Further, the “Digitaria sanguinalis, activity level” value with Digitaria sanguinalis was 4 (Level 4: growth control rate is greater than or equal to 60% and less than 85%).
